Laboratory results taken from ChEMBL document CHEMBL1156943, “Toward the development of potent and selective bisubstrate inhibitors of protein arginine methyltransferases” (Bioorg Med Chem Lett, 2010).

Columns and labels:
[1] = biological target: T1, Histone-lysine N-methyltransferase SETD7 (Homo sapiens, UniProt Q8WTS6); experiment: Inhibition of GST-fused human recombinant SET7 after 90 mins by SDS-PAGE based scintillation counting
T1 sequence (Q8WTS6 whole entry): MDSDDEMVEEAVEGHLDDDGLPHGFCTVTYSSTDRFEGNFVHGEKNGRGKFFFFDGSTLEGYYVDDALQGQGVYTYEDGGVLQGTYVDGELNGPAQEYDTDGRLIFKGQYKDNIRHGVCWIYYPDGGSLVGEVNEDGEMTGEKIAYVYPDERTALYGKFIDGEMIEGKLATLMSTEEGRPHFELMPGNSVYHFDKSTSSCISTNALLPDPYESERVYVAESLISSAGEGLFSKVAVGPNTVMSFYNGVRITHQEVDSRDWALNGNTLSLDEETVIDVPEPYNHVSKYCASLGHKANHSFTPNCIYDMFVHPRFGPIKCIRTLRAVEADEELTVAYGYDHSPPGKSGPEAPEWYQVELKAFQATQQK

[2] = biological target: T2, Histone-lysine N-methyltransferase SETD7 (Homo sapiens) (UniProt Q8WTS6); experiment: Inhibition of GST-fused human recombinant SET7 at 100 uM after 90 mins by SDS-PAGE based scintillation counting
T2 sequence (whole entry): T1 sequence (Q8WTS6 whole entry)

[3] = biological target: T3, Protein arginine N-methyltransferase 1 (Homo sapiens, UniProt Q99873); experiment: Inhibition of GST-fused human recombinant PRMT1 at 100 uM after 90 mins by SDS-PAGE based scintillation counting
Target sequence in this assay (Q99873 whole entry, looked up, the tested form may be a part): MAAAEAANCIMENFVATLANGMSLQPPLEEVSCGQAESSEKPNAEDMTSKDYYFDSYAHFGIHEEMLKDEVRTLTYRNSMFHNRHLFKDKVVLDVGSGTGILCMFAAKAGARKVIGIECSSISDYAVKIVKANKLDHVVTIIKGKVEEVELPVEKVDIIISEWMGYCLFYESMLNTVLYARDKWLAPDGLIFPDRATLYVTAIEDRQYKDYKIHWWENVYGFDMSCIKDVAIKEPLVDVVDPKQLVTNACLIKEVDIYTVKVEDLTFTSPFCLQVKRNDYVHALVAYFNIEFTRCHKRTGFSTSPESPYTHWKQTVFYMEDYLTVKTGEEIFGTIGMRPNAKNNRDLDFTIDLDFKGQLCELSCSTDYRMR

[4] = biological target: T3, Protein arginine N-methyltransferase 1; experiment: Inhibition of GST-fused human recombinant PRMT1 after 90 mins by SDS-PAGE based scintillation counting
Target sequence in this assay (Q99873 whole entry, the tested form may be a part): as the sequence (Q99873 whole entry, looked up, the tested form may be a part) above

Compound	IC50 [1]	inhibition [2]	inhibition [3]	IC50 [4]
Nc1ncnc2c1ncn2[C@@H]1O[C@H](C[C@@H](N)CC[C@H](N)C(=O)O)[C@@H](O)[C@H]1O [SINEFUNGIN]	2.5 µM			
N=C(N)NCCn1cc(CN(CC[C@H](N)C(=O)O)C[C@H]2O[C@@H](n3cnc4c(N)ncnc43)[C@H](O)[C@@H]2O)nn1		> 50%	> 50%	
C#CCN(CC[C@H](NC(=O)OC(C)(C)C)C(=O)OC(C)(C)C)C[C@H]1O[C@@H](n2cnc3c(N)ncnc32)[C@@H]2OC(C)(C)O[C@@H]21		63%	77%	
N=C(N)NCCCCCN(CC[C@H](N)C(=O)O)C[C@H]1O[C@@H](n2cnc3c(N)ncnc32)[C@H](O)[C@@H]1O		55%		
N=C(N)NCCCN(CC[C@H](N)C(=O)O)C[C@H]1O[C@@H](n2cnc3c(N)ncnc32)[C@H](O)[C@@H]1O		56.5%		6.2 µM
C#CCN(CC[C@H](N)C(=O)O)C[C@H]1O[C@@H](n2cnc3c(N)ncnc32)[C@H](O)[C@@H]1O		75%	50%	
N=C(N)NCCCCN(CC[C@H](N)C(=O)O)C[C@H]1O[C@@H](n2cnc3c(N)ncnc32)[C@H](O)[C@@H]1O		49%		2.9 µM
